# Patent publication US10758534B2 (Vertex Pharmaceuticals Incorporated, priority 2014, dated 2020)
# Biological target: T1, F508del (Homo sapiens, UniProt P13569, DEL508-508)
# T1 construct: expressed in transfected cells
# Test: Protocol 1: membrane potential optical assay (FLIPR III, voltage sensing dye), identification of potentiator compounds
# Assay type: cell-based
# Settings: Table 3, compounds of Table 1
# How it was run: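 Mouse NIH 3T3 fibroblasts stably expressing F508del, temperature-corrected at 27 °C for 24 h, pretreated with compound, then loaded with voltage-sensing redistribution dye. Forskolin was added in a single step with a chloride gradient (chloride-free gluconate bath; Bath Solution #1 HEPES pH 7.4). Membrane-potential fluorescence read on FLIPR III.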
# T1 sequence (P13569 with tags, fused parts or gaps DEL508-508): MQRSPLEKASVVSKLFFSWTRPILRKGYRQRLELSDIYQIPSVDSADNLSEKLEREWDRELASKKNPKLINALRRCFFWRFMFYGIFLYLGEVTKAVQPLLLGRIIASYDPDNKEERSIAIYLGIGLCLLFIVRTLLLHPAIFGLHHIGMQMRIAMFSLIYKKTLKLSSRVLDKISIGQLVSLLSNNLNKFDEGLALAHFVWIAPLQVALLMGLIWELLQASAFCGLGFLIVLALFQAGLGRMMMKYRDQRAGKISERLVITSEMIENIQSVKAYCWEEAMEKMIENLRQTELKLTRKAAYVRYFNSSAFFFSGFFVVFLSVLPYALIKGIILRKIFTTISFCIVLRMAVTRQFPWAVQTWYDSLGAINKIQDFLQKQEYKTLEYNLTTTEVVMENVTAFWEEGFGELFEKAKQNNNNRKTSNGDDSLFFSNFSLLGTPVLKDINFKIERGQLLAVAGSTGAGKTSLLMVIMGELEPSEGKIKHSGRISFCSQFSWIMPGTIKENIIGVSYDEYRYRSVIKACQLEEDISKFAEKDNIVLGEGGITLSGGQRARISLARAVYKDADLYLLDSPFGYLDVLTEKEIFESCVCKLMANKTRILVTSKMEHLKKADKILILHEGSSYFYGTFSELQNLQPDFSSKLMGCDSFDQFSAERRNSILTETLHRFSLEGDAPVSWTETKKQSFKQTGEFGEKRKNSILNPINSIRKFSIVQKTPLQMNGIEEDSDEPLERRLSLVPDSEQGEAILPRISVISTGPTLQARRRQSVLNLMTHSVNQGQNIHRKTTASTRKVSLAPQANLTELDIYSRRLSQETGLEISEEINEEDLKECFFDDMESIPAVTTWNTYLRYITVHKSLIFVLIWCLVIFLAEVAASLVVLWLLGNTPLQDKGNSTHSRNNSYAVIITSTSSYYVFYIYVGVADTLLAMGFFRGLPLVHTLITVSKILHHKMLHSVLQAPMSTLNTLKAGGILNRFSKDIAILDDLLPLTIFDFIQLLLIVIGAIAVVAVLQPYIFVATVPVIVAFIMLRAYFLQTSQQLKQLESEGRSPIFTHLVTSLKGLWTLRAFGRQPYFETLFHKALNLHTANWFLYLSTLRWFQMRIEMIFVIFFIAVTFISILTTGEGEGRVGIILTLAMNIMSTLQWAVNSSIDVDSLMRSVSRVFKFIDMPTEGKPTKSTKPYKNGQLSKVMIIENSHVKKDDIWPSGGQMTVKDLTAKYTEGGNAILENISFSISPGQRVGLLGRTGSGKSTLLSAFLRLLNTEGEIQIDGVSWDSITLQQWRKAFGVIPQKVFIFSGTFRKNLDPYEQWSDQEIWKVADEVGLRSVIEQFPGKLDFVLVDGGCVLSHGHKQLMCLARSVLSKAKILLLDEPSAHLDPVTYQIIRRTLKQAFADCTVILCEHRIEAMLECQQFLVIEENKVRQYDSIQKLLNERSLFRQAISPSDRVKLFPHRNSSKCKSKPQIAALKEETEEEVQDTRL
row,EC30,SMILES
1,+++ (“+++” means <3 uM),"Cc1cc(C)c(Oc2nc(C3CCCC3)ccc2C(=O)NS(=O)(=O)c2cccc(N)n2)c(C)c1 [Compound 1280, N-[(6-amino-2-pyridyl)sulfonyl]-6-cyclopentyl-2-(2,4,6-trimethylphenoxy)pyridine-3-carboxamide]"
2,+++ (“+++” means <3 uM),"COc1nccc(-c2ccc(C(=O)NS(=O)(=O)c3cccc(N)n3)c(Oc3c(C)cc(C)cc3C)n2)c1Cl [Compound 1284, N-[(6-amino-2-pyridyl)sulfonyl]-6-(3-chloro-2-methoxy-4-pyridyl)-2-(2,4,6-trimethylphenoxy)pyridine-3-carboxamide]"
3,+++ (“+++” means <3 uM),"Cc1ccc(-c2ccc(C(=O)NS(=O)(=O)c3cccc(N)n3)c(Oc3c(C)cc(C)cc3C)n2)nc1 [Compound 1290, N-[(6-amino-2-pyridyl)sulfonyl]-6-(5-methyl-2-pyridyl)-2-(2,4,6-trimethylphenoxy)pyridine-3-carboxamide]"
4,+++ (“+++” means <3 uM),"Cc1cc(C)c(Oc2nc(C(C)(C)C)ccc2C(=O)NS(=O)(=O)c2csc(N)n2)c(C)c1 [Compound 1294, N-(2-aminothiazol-4-yl)sulfonyl-6-tert-butyl-2-(2,4,6-trimethylphenoxy)pyridine-3-carboxamide]"
5,+++ (“+++” means <3 uM),"Cc1cc(C)c(Oc2nc(-c3cccc(Cl)c3)ccc2C(=O)NS(=O)(=O)c2cccc(N)n2)c(C)c1 [Compound 1295, N-[(6-amino-2-pyridyl)sulfonyl]-6-(3-chlorophenyl)-2-(2,4,6-trimethylphenoxy)pyridine-3-carboxamide]"
6,+ (“+” means greater than 10 uM),"Cc1cc(C)c(Oc2nc(-c3cccc(F)c3F)ccc2C(=O)NS(=O)(=O)c2ccc[nH]c2=O)c(C)c1 [Compound 1296, 6-(2,3-difluorophenyl)-N-[(2-oxo-1H-pyridin-3-yl)sulfonyl]-2-(2,4,6-trimethylphenoxy)pyridine-3-carboxamide]"
7,+++ (“+++” means <3 uM),"Cc1cc(C)c(Oc2nc(C3(C)CC3)ccc2C(=O)NS(=O)(=O)c2ccc(N)cc2)c(C)c1 [Compound 1297, N-(4-aminophenyl)sulfonyl-6-(1-methylcyclopropyl)-2-(2,4,6-trimethylphenoxy)pyridine-3-carboxamide]"
8,++ (“++” means between 3 uM and 10 uM),"Cc1cc(C)c(Oc2nc(-c3ccc4cn(C)nc4c3)ccc2C(=O)NS(=O)(=O)c2cccc(N)n2)c(C)c1 [Compound 1299, N-[(6-amino-2-pyridyl)sulfonyl]-6-(2-methylindazol-6-yl)-2-(2,4,6-trimethylphenoxy)pyridine-3-carboxamide]"

# The next lines start with the molecule.
row,SMILES,EC30
1,"CC(C)COc1cc(F)cc(-c2ccc(C(=O)NS(=O)(=O)c3ccn[nH]3)c(NC3CCCC(C(F)(F)F)C3)n2)c1 (stereo not shown) [Compound 1281, 6-(3-fluoro-5-isobutoxy-phenyl)-N-(1H-pyrazol-5-ylsulfonyl)-2-[[3-(trifluoromethyl)cyclohexyl]amino]pyridine-3-carboxamide]",++ (“++” means between 3 uM and 10 uM)
2,"CC(C)COc1cc(F)cc(-c2ccc(C(=O)NS(=O)(=O)c3ccn[nH]3)c(N3CCCC34CCC4)n2)c1 [Compound 1282, 2-(8-azaspiro[3.4]octan-8-yl)-6-(3-fluoro-5-isobutoxy-phenyl)-N-(1H-pyrazol-5-ylsulfonyl)pyridine-3-carboxamide]",+++ (“+++” means <3 uM)
3,"CC(C)Oc1ccc(-c2ccc(C(=O)NS(=O)(=O)c3cccc(N)n3)c(N3CCCC(C)(C)C3)n2)cn1 [Compound 1283, N-[(6-amino-2-pyridyl)sulfonyl]-2-(3,3-dimethyl-1-piperidyl)-6-(6-isopropoxy-3-pyridyl)pyridine-3-carboxamide]",+++ (“+++” means <3 uM)
4,"CC(C)Oc1cc(F)cc(-c2ccc(C(=O)NS(=O)(=O)c3ccn[nH]3)c(N3[C@H](C)CC[C@@H]3C)n2)c1 [Compound 1285, 2-[(2S,5R)-2,5-dimethylpyrrolidin-1-yl]-6-(3-fluoro-5-isopropoxy-phenyl)-N-(1H-pyrazol-5-ylsulfonyl)pyridine-3-carboxamide]",+++ (“+++” means <3 uM)
5,"CC(C)COc1cc(F)cc(-c2ccc(C(=O)NS(=O)(=O)c3ccn[nH]3)c(N3CCCC(C4CC4)C3)n2)c1 (stereo not shown) [Compound 1286, 2-(3-cyclopropyl-1-piperidyl)-6-(3-fluoro-5-isobutoxy-phenyl)-N-(1H-pyrazol-5-ylsulfonyl)pyridine-3-carboxamide]",+++ (“+++” means <3 uM)
6,"COc1ccc(C)c(-c2nc(N3CC(C)CC3(C)C)c(C(=O)NS(=O)(=O)c3cccc(N)n3)cc2C)c1 (stereo not shown) [Compound 1287, N-[(6-amino-2-pyridyl)sulfonyl]-6-(5-methoxy-2-methyl-phenyl)-5-methyl-2-(2,2,4-trimethylpyrrolidin-1-yl)pyridine-3-carboxamide]",+++ (“+++” means <3 uM)
7,"CC(C)Cn1cc(-c2ccc(C(=O)NS(=O)(=O)c3nccnc3N)c(N3CCC(C)CC3)n2)cn1 [Compound 1288, N-(3-aminopyrazin-2-yl)sulfonyl-6-(1-isobutylpyrazol-4-yl)-2-(4-methyl-1-piperidyl)pyridine-3-carboxamide]",++ (“++” means between 3 uM and 10 uM)
8,"CC(C)COc1cc(F)cc(-c2ccc(C(=O)NS(=O)(=O)c3cccc(N)n3)c(N3C[C@H](C)CC3(C)C)n2)c1 [Compound 1289, N-[(6-amino-2-pyridyl)sulfonyl]-6-(3-fluoro-5-isobutoxy-phenyl)-2-[(4R)-2,2,4-trimethylpyrrolidin-1-yl]pyridine-3-carboxamide]",+++ (“+++” means <3 uM)
9,"Cc1cccc(C)c1Cn1c(C(=O)NS(=O)(=O)c2ccccc2)cc2cccnc21 [Compound 1291, N-(benzenesulfonyl)-1-[(2,6-dimethylphenyl)methyl]pyrrolo[2,3-b]pyridine-2-carboxamide]",++ (“++” means between 3 uM and 10 uM)
10,"Cc1ccc(-c2nc3c(cc2C(=O)NS(=O)(=O)c2ccn[nH]2)CCCC3(C)C)cc1 [Compound 1292, 8,8-dimethyl-2-(p-tolyl)-N-(1H-pyrazol-5-ylsulfonyl)-6,7-dihydro-5H-quinoline-3-carboxamide]",+ (“+” means greater than 10 uM)
11,"CCCOc1cc(-c2ccc(C(=O)NS(=O)(=O)c3ccc[nH]c3=O)c(N3[C@H](C)CC[C@@H]3C)n2)ccc1Cl [Compound 1293, 6-(4-chloro-3-propoxy-phenyl)-2-[(2R,5S)-2,5-dimethylpyrrolidin-1-yl]-N-[(2-oxo-1H-pyridin-3-yl)sulfonyl]pyridine-3-carboxamide]",++ (“++” means between 3 uM and 10 uM)
12,"COC1CCN(c2nc(C(C)(C)C)ccc2C(=O)NS(=O)(=O)c2ccc(N)cc2)CC1 [Compound 1298, N-(4-aminophenyl)sulfonyl-6-tert-butyl-2-(4-methoxy-1-piperidyl)pyridine-3-carboxamide]",++ (“++” means between 3 uM and 10 uM)
13,"Cc1ccc(-c2ccc(C(=O)NS(=O)(=O)c3ccc[nH]c3=O)c(Oc3c(C)cc(C)cc3C)n2)cc1 [Compound 1300, N-[(2-oxo-1H-pyridin-3-yl)sulfonyl]-6-(p-tolyl)-2-(2,4,6-trimethylphenoxy)pyridine-3-carboxamide]",+++ (“+++” means <3 uM)
14,"CCOc1ccc(F)c(-c2ccc(C(=O)NS(=O)(=O)c3ccc[nH]c3=O)c(Oc3c(C)cc(C)cc3C)n2)c1 [Compound 1301, 6-(5-ethoxy-2-fluoro-phenyl)-N-[(2-oxo-1H-pyridin-3-yl)sulfonyl]-2-(2,4,6-trimethylphenoxy)pyridine-3-carboxamide]",++ (“++” means between 3 uM and 10 uM)
